{"source": "paper PMC11992225", "about": "“Antibacterial compounds against non-growing and intracellular bacteria” (npj Antimicrobials and Resistance, 2025)", "key": {"TC7 cells": {"system": "TC7 cells", "assay": "TC7 cell viability upon drug exposure, MTS assay", "type": "cell-based", "conditions": "at the MIC concentrations, 12 h, no bacteria", "experimental": "TC7 cells were grown to confluence in transparent 96-well cell culture plates (TPP) in the same cell culture medium used for the in vitro infection assay. Just prior to the experiment, the medium was discarded, and the cells were washed twice with sterile PBS to remove any traces of medium or dead cells. […] The plate was incubated at 37 °C in a CO2 incubator for 12 h, under the same conditions as the infection assay.\nThe 3-(4,5-dimethylthiazol-2-yl)-5-(3-carboxymethoxyphenyl)-2-(4-sulfophenyl)-2H-tetrazolium (MTS) assay was performed using the CellTiter 96® AQueous One Solution Cell Proliferation Assay kit (Promega), according to the manufacturer’s instructions. Briefly, 20 μl of CellTiter 96 AQueous One Solution Reagent was added to each well, and the plate was incubated for 2 h at 37 °C in a CO2 incubator. The OD490 of the samples was measured using a Spark multimode plate reader (Tecan). The raw values were normalized to the control wells incubated with infection buffer only. The experiment was performed in duplicate."}, "non-growing UPEC CFT073": {"system": "non-growing UPEC CFT073", "assay": "Dilution-regrowth assay (screen, hit validation, dose-response) on stationary-phase UPEC", "type": "cell-based, Escherichia coli", "experimental": "(§1) The cultures were incubated for 24 h in non-baffled Erlenmeyer flasks at 37 °C with shaking at 200 rpm.\nThe high-throughput screening (HTS) procedure was based on the protocol by Hazan and colleagues[15] and conducted at the Chemical Biology Consortium Sweden (CBCS) screening facility. […] Each plate included eight wells with 200 nl of 10 mM gatifloxacin, finafloxacin, and kanamycin solutions, along with 8-wells containing 200 nl of DMSO as controls. After 24 h incubation,100 μl of the culture was dispensed into each well of the 384-well plates for screening at a final concentration of 20 μM. The plates were sealed with parafilm and incubated at 37 °C for 24 h in closed humidified boxes, with wet paper towels added to prevent evaporation. […] The plates were incubated at 37 °C for 6 h in humidified boxes, then OD600 was measured using a microplate reader.\nFor hit validation, bacteria were cultivated, and the dilution-regrowth assay was conducted following the same protocol used in the primary screen. Hit compounds were dispensed into 384-well plates using the Echo® (Labcyte) system, with 200, 100, or 50 nl of a 10 mM solution in DMSO added per well, yielding final screening concentrations of 20, 10, and 5 μM, respectively. OD600 values of regrowing samples were normalized to the mean OD600 of the drug-free control. The testing was conducted in two replicates.\nFor UPEC, dose–response analysis was conducted at the CBCS screening facility. Bacteria were cultivated, and the dilution-regrowth assay was performed according to the HTS protocol. Compounds were dispensed into 384-well plates using the Echo® (Labcyte) system, and regrowth was assessed by measuring OD600 after 6 h of incubation at 37 °C in humidified boxes. Three biological replicates were performed.\n(§2) Statistical significance of the drug effects was assessed using a one-way ANOVA followed by Dunnett’s test, comparing each treatment to the drug-free control. Statistical significance of the differences in chemical characteristics between the hit compounds and the Prestwick library was assessed using a Mann–Whitney test. Statistical significance was set at P ≤ 0.05. A five-parameter logistic equation was used for asymmetric sigmoidal curve fitting and for EC50 and IC50 determination. The Venn diagram in Fig. 1F was prepared using BioVenn web application. Characteristics of the chemical and physical properties of Prestwick library compounds were obtained from Supplementary Table S1 from reference. Characteristics of the hit compounds not included in the Prestwick library were retrieved from the PubChem database."}, "E. coli CFT073 (UPEC)": {"system": "E. coli CFT073 (UPEC)", "assay": "MIC, standard microdilution assay, growing UPEC", "type": "cell-based, Escherichia coli", "conditions": "Escherichia coli; E. coli, pH 7.4; CA-MHB; read-out: MIC (μM) CA-MHB", "experimental": "(§3) Minimal inhibitory concentrations (MICs) were determined using a standard microdilution assay protocol. CA-MHB medium buffered with 40 mM HEPES (pH 7.4) was used to determine the MICs for UPEC, P. aeruginosa, and S. aureus. […] MICs for UPEC were also determined in LPM buffered with 30 mM MES (pH 5.5). For S. flexneri, MICs were determined in tryptic soy broth (TSB). The assay was performed in triplicates."}, "[1]": {"system": "non-growing S. aureus DSM2569", "assay": "Dilution-regrowth assay (OD600, start-growth-time) on stationary-phase S. aureus", "type": "cell-based, Staphylococcus aureus", "conditions": "S. aureus", "experimental": "The cultures were grown and treated for 24 h in 1:4 CA-MHB (pH 7.4).\nThis approach allowed us to capture the time when cultures reached a threshold optical density (start-growth-time, SGT[15]).\nas §1\nFor P. aeruginosa and S. aureus, dose–response analysis was conducted in 96-well plates with a 200 μl assay volume, following the procedure used for screening assay validation experiments. […] Stock solutions were prepared and stored according to the manufacturers’ instructions, then diluted in 10% DMSO before use. Cultures were incubated for 24 h in 1:4 diluted CA-MHB medium under the same conditions used for UPEC cultivation. In preliminary experiments, each compound was tested at a concentration of 20 μM in the dilution-regrowth assay with 4 technical replicates. Regrowth was monitored using a microplate reader at 37 °C with continuous shaking, and OD600 was recorded every 20 min. The time at which OD600 exceeded the threshold of 0.12 was recorded as the Start_Growth-Time.\nas §2"}, "S. aureus DSM2569": {"system": "S. aureus DSM2569", "assay": "MIC, standard microdilution assay, growing S. aureus", "type": "cell-based, Staphylococcus aureus", "conditions": "Staphylococcus aureus, DSM2569; S. aureus; CA-MHB pH 7.4; read-out: MIC (μM) CA-MHB", "experimental": "as §3"}, "P. aeruginosa DSM1117": {"system": "P. aeruginosa DSM1117", "assay": "MIC, standard microdilution assay, growing P. aeruginosa", "type": "cell-based, Pseudomonas aeruginosa", "conditions": "Pseudomonas aeruginosa, DSM1117; P. aeruginosa; CA-MHB pH 7.4; read-out: MIC (μM) CA-MHB", "experimental": "as §3"}, "S. flexneri 5a M90T": {"system": "S. flexneri 5a M90T", "assay": "MIC in tryptic soy broth, S. flexneri", "type": "cell-based, Shigella flexneri", "conditions": "Shigella flexneri, 5AM90T, read-out: MIC (μM) TSB", "experimental": "as §3"}, "[2]": {"system": "E. coli CFT073 and BW25113", "assay": "Semapimod assay: killing and regrowth of stationary-phase E. coli in two media", "type": "cell-based, Escherichia coli", "conditions": "1% LB diluted in PBS, 20 and 50 μM, 24 h", "experimental": "E. coli CFT073 and BW25113 were grown in 3 ml of LB at 37 °C, shaking at 200 rpm for 16 h. The overnight cultures were then diluted either 1:100 into 40 ml of 1:4 diluted CA-MHB (40 mM HEPES, pH 7.4) or 1:10,000 into 40 ml of 1% LB in PBS and grown in 125 mL Erlenmeyer flasks for 24 h at 37 °C, shaking at 200 rpm. Following this, 1 ml aliquots of each culture were transferred to 1.5 ml test tubes, and semapimod was added at final concentrations of 20 μM and 50 μM. DMSO was added to drug-free controls. To quantify live bacteria before treatment, a sample of each culture was serially 10-fold diluted into PBS, and 10 μL drops were spot-plated onto LB agar. The closed test tubes were incubated for 24 h at 37 °C without shaking.\nAfter treatment, the samples were diluted 2500-fold in two steps: a 50-fold dilution into PBS, followed by a 50-fold dilution into CA-MHB in a 96-well plate with a total volume of 200 μl per well. The 96-well plate was then incubated in a BioTek Synergy H1 plate reader at 37 °C with continuous shaking at medium speed for 22 h with a lid. OD600 was recorded every 20 min. Additionally, the treated samples were diluted 1:200 into LB in another 96-well plate and incubated in a BioTek Synergy Mx plate reader at 37 °C without shaking for 22 h, with OD600 recorded every hour. […]"}}, "data": [{"smiles": "[H]/N=C(\\N/C(=N/[H])NCCCCCCNC(=N)NC(=N)Nc1ccc(Cl)cc1)Nc1ccc(Cl)cc1", "note": "[Chlorhexidine]", "values": [{"measurement": "toxicity to TC7 epithelial cells", "setting": "TC7 cells", "result": "toxic"}, {"measurement": "Regrowth, OD600 at 6h or 8h after dilution into drug-free medium (average)", "setting": "non-growing UPEC CFT073; E. coli in 1:4 CA-MHB (pH 7.4), drug concentration 0.25", "result": 0.634}, {"measurement": "Regrowth, OD600 at 6h or 8h after dilution into drug-free medium (average)", "setting": "non-growing UPEC CFT073; E. coli in 1:4 CA-MHB (pH 7.4), drug concentration 0.5", "result": 0.632}, {"measurement": "Regrowth, OD600 at 6h or 8h after dilution into drug-free medium (average)", "setting": "non-growing UPEC CFT073; E. coli in 1:4 CA-MHB (pH 7.4), drug concentration 1", "result": 0.646}, {"measurement": "Regrowth, OD600 at 6h or 8h after dilution into drug-free medium (average)", "setting": "non-growing UPEC CFT073; E. coli in 1:4 CA-MHB (pH 7.4), drug concentration 2.5", "result": 0.634}, {"measurement": "Regrowth, OD600 at 6h or 8h after dilution into drug-free medium (average)", "setting": "non-growing UPEC CFT073; E. coli in 1:4 CA-MHB (pH 7.4), drug concentration 5", "result": 0.636}, {"measurement": "Regrowth, OD600 at 6h or 8h after dilution into drug-free medium (average)", "setting": "non-growing UPEC CFT073; E. coli in 1:4 CA-MHB (pH 7.4), drug concentration 10", "result": 0.585}, {"measurement": "Regrowth, OD600 at 6h or 8h after dilution into drug-free medium (average)", "setting": "non-growing UPEC CFT073; E. coli in 1:4 CA-MHB (pH 7.4), drug concentration 30", "result": 0.062}, {"measurement": "Regrowth, OD600 at 6h or 8h after dilution into drug-free medium (average)", "setting": "non-growing UPEC CFT073; E. coli in LPM (pH 5.5), drug concentration 0.25", "result": 0.602}, {"measurement": "Regrowth, OD600 at 6h or 8h after dilution into drug-free medium (average)", "setting": "non-growing UPEC CFT073; E. coli in LPM (pH 5.5), drug concentration 0.5", "result": 0.598}, {"measurement": "Regrowth, OD600 at 6h or 8h after dilution into drug-free medium (average)", "setting": "non-growing UPEC CFT073; E. coli in LPM (pH 5.5), drug concentration 1", "result": 0.611}, {"measurement": "Regrowth, OD600 at 6h or 8h after dilution into drug-free medium (average)", "setting": "non-growing UPEC CFT073; E. coli in LPM (pH 5.5), drug concentration 2.5", "result": 0.608}, {"measurement": "Regrowth, OD600 at 6h or 8h after dilution into drug-free medium (average)", "setting": "non-growing UPEC CFT073; E. coli in LPM (pH 5.5), drug concentration 5", "result": 0.621}, {"measurement": "Regrowth, OD600 at 6h or 8h after dilution into drug-free medium (average)", "setting": "non-growing UPEC CFT073; E. coli in LPM (pH 5.5), drug concentration 10", "result": 0.624}, {"measurement": "Regrowth, OD600 at 6h or 8h after dilution into drug-free medium (average)", "setting": "non-growing UPEC CFT073; E. coli in LPM (pH 5.5), drug concentration 30", "result": 0.633}, {"measurement": "EC50", "setting": "non-growing UPEC CFT073; Escherichia coli, E. coli, pH 7.4, regrowth delay of non-growing bacteria, 1:4 CA-MHB, 24 h treatment, OD600 6 h after 2500-fold dilution, read-out: EC50", "result": 17.5, "unit": "µM"}, {"measurement": "activity against non-growing UPEC in LPM (pH 5.5) compared to 1:4 CA-MHB (pH 7.4)", "setting": "non-growing UPEC CFT073; regrowth delay and killing, Figs. 2 and 3", "result": "active at pH 7.4 and completely inactive in the acidic medium"}, {"measurement": "MIC", "setting": "E. coli CFT073 (UPEC)", "result": 1, "unit": "µM"}, {"measurement": "Regrowth, OD600 at 6h or 8h after dilution into drug-free medium (average)", "setting": "[1]; drug concentration 0.1", "result": 0.684}, {"measurement": "Regrowth, OD600 at 6h or 8h after dilution into drug-free medium (average)", "setting": "[1]; drug concentration 0.5", "result": 0.683}, {"measurement": "Regrowth, OD600 at 6h or 8h after dilution into drug-free medium (average)", "setting": "[1]; drug concentration 2.5", "result": 0.676}, {"measurement": "Regrowth, OD600 at 6h or 8h after dilution into drug-free medium (average)", "setting": "[1]; drug concentration 10", "result": 0.247}, {"measurement": "EC50", "setting": "[1]; Staphylococcus aureus, DSM2569, regrowth delay of non-growing bacteria, 1:4 CA-MHB pH 7.4, 24 h treatment, OD600 8 h after dilution, read-out: EC50", "result": 19.4, "unit": "µM"}, {"measurement": "MIC", "setting": "S. aureus DSM2569", "result": 2, "unit": "µM"}, {"measurement": "MIC", "setting": "P. aeruginosa DSM1117", "result": 8, "unit": "µM"}, {"measurement": "MIC", "setting": "S. flexneri 5a M90T", "result": 1, "unit": "µM"}]}, {"smiles": "C/C(=N\\NC(=N)N)c1cc(NC(=O)CCCCCCCCC(=O)Nc2cc(/C(C)=N/NC(=N)N)cc(/C(C)=N/NC(=N)N)c2)cc(/C(C)=N/NC(=N)N)c1", "note": "[semapimod]", "values": [{"measurement": "activity in the dilution-regrowth screen", "setting": "non-growing UPEC CFT073; non-growing UPEC, 20 μM", "result": "not among our hits"}, {"measurement": "bactericidal activity on stationary-phase E. coli", "setting": "[2]", "result": "strong bactericidal activity"}]}]}
